# Laboratory results published in patent US10995322B2, “Processes to prepare elongated 2-ketoacids and C5-C10 compounds therefrom via genetic modifications to microbial metabolic pathways” (priority 2016, dated 2021).
# B1: E. coli isopropylmalate synthase (LeuA, Gene Accession No. EG11226) variant 614, H97A/S139G/N167G/P169A/G462D (Escherichia coli K-12; … (protein)
# chain: MSQQVIIFDTTLRDGEQALQASLSVKEKLQIALALERMGVDVMEVGFPVSSPGDFESVQTIARQVKNSRVCALARCVEKDIDVAAESLKVAEAFRIATFIATSPMHIATKLRSTLDEVIERAIYMVKRARNYTDDVEFGCEDAGRTPIADLARVVEAAINAGATTIGIADTVGYTMPFEFAGIISGLYERVPNIDKAIISVHTHDDLGLAVGNSLAAVHAGARQVEGAMNGIGERAGNCSLEEVIMAIKVRKDILNVHTAINHQEIWRTSQLVSQICNMPIPANKAIVGSGAFAHSSGIHQDGVLKNRENYEIMTPESIGLNQIQLNLTSRSGRAAVKHRMDEMGYKESEYNLDNLYDAFLKLADKKGQVFDYDLEALAFIGKQQEEPEHFRLDYFSVQSGSNDIATAAVKLACGEEVKAEAANGNGPVDAVYQAINRITEYNVELVKYSLTAKGHGKDALDQVDIVANYNGRRFHGVGLATDIVESSAKAMVHVLNNIWRAAEVEKELQRKAQHNENNKETV
# notes: His-tag (13 additional amino acids, six histidines) (N); made in house; host or cells: E. coli BL21 (DE3)
# Assays:
# CCCCCCC(=O)C(=O)O = assay: purified protein, by the assay type; conditions: pH 7.5; 30.0 °C
# [1] = system: CC(=O)SCCNC(=O)CCNC(=O)[C@H](O)C(C)(C)COP(=O)(O)OP(=O)(O)OC[C@H]1O[C@@H](n2cnc3c(N)ncnc32)[C@H](O)[C@@H]1OP(=O)(O)O; assay: purified protein, by the assay type; conditions: pH 7.5; 30.0 °C
# [2] = target: Enterobacter cloacae isopropylmalate synthase (Gene Accession No. WP_014830637, SEQ ID NO: 2) variant 1457, M255L/R260A/N264Q/H97A/S139G/N167G/P169A/G462D (Enterobacter cloacae, UniProt A0A0H3CGL5, G462D/H97A/M255L/N167G/N264Q/P169A/R260A/S139G); conditions: pH 7.5, 30° C.
# [3] = target: Enterobacter cloacae isopropylmalate synthase (Gene Accession No. WP_014830637, SEQ ID NO: 2) variant 1414, H97A/S139G/N167G/P169A/G462D (Enterobacter cloacae, UniProt A0A0H3CGL5, G462D/H97A/N167G/P169A/S139G); conditions: pH 7.5, 30° C.
# [4] = system: Citrobacter freundii MGH 56 isopropylmalate synthase (Gene Accession No. KDF09799, SEQ ID NO: 1) variant 1467, G181A/A182G/G210A/A214S/H97A/S139G/N167G/P169A/G4 …; conditions: 2-ketooctanoate
# [5] = target: Citrobacter freundii MGH 56 isopropylmalate synthase (Gene Accession No. KDF09799, SEQ ID NO: 1) variant 1467, G181A/A182G/G210A/A214S/H97A/S139G/N167G/P169A/G4 (Citrobacter freundii, UniProt A0A0D7LMP4, A182G/A214S/G181A/G210A/G462D/H97A/N167G/P169A/S139G); conditions: pH 7.5, 30° C.
# [6] = target: Citrobacter freundii MGH 56 isopropylmalate synthase (Gene Accession No. KDF09799, SEQ ID NO: 1) variant 1409, H97A/S139G/N167G/P169A/G462D (Citrobacter freundii, UniProt A0A0D7LMP4, G462D/H97A/N167G/P169A/S139G); conditions: pH 7.5, 30° C.
# [7] = target: Enterobacter cloacae isopropylmalate synthase (Gene Accession No. WP_014830637, SEQ ID NO: 2) variant 1460, D348E/D350E/M353L/Q355N/H97A/S139G/N167G/P169A/G462D (Enterobacter cloacae, UniProt A0A0H3CGL5, D348E/D350E/G462D/H97A/M353L/N167G/P169A/Q355N/S139G); conditions: pH 7.5, 30° C.
# [8] = target: Citrobacter freundii MGH 56 isopropylmalate synthase (Gene Accession No. KDF09799, SEQ ID NO: 1) variant 1466, G210A/A214S/H97A/S139G/N167G/P169A/G462D (Citrobacter freundii, UniProt A0A0D7LMP4, A214S/G210A/G462D/H97A/N167G/P169A/S139G); format: biochemical; conditions: acetyl-CoA 0-10 mM, 2-ketooctanoate 2 mM, pH 7.5, 30° C.
# [9] = substrate: CC(=O)SCCNC(=O)CCNC(=O)[C@H](O)C(C)(C)COP(=O)(O)OP(=O)(O)OC[C@H]1O[C@@H](n2cnc3c(N)ncnc32)[C@H](O)[C@@H]1OP(=O)(O)O; assay: Kinetic evaluation of isopropylmalate synthase construct 614 (DTNB/CoASH assay); format: biochemical, E. coli; conditions: other: acetyl-CoA 0-10 mM, 2-ketooctanoate 2 mM, pH 7.5, 30° C.
# Method: (§1) Codons of 13 additional amino acids that included six histidine's were fused upstream of the codon of Met-1 of each IPMS gene sequence. Such a modification allowed expression of a His-tagged IPMS having 13 additional amino acids on the N-terminus. To the resulting modified gene, additional bases were added to introduce a NcoI and a SacI restriction site at the 5′- and 3′-end, respectively, for cloning purposes. The whole DNA sequence was chemically synthesized and cloned into the E. coli expression vector, pETDuet-1 at the NcoI and SacI sites by SGI Inc. His-tagged IPMSs were heterologously expressed in E. coli BL21 (DE3) cells and purified using Co-NTA chromatography. It is noted that none of the Sequence Listings included herein show the histidine-tag that is used, which in this case is […]
# (§2) For expressing isopropylmalate synthases and its variants, competent cells of E. coli BL21(DE3) cells (acquired from EMD Biosciences) were transformed using standard procedures with the pETDuet expression vector containig their gene sequences. Cells harboring the expression vector were selected on LB agar plates containing 50 μg/mL of ampicillin. A starter culture was started by transferring a single colony of transformant into 50 mL of LB medium containing 100 μg/mL of ampicillin and incubated at 37° C. with shaking at 220 rpm overnight. On the next day, 7 mL of starter culture was inoculated into 800 mL of Terrific Broth (TB) and the culture was incubated at 37° C. until it reached an OD600 nm of 0.5. Isopropyl β-D-1-thiogalacto-pyranoside (IPTG) at a final concentration of 1 mM was added to induce the expression of the isopropylmalate synthase or its variant and the culture was transferred to a 15° C. incubator for 16 hours (h). At the end of 16 h, the culture was centrifuged at 8000 revolutions per minute (rpm) to pelletize the cells. The cell pellet was stored at −80° C. overnight before purification.
# (§3) For isolation and purification of the enzyme, cell pellet taken from 400 mL of expression culture was suspended in B-PER reagent (Thermo Fisher Scientific, Inc., Rockford, Ill.) containing 1 μg/mL of DNAse (Thermo Fisher Scientific, Inc., Rockford, Ill.), 1 μg/mL of lysozyme (Thermo Fisher Scientific, Inc., Rockford, Ill.), 1 millimolar (mM) of dithiothreitol, and protease inhibitor cocktail (RPI Corp., Mount Prospect, Ill.). The suspension was rocked gently for 30 minutes (min) at room temperature and centrifuged at 15,000 times gravity (×g) for 20 min to pelletize cell debris. The supernatant was separated and incubated with 5 mL of Co-NTA resin (Thermo Fisher Scientific, Inc., Rockford, Ill.) that had been pre-equilibrated with an equilibration buffer (50 mM sodium phosphate, pH 8.0, containing 300 mM sodium chloride, 20 mM imidazole, 50 μL protease inhibitor cocktail, and 15% glycerol). Following an incubation period of 1 h at 4° C., the enzyme bound resin was washed with 5 volumes of equilibration buffer. Isopropylmalate synthase or its variants were eluted from the Co-NTA resin with equilibration buffer containing 200 mM imidazole. The eluted proteins were dialyzed against phosphate buffered saline and stored as a 20% glycerol solution at −20° C.
# (§4) The evaluation of the LeuA variants was performed in two steps using the high-throughput enzyme assay described below. Initially, all the variants were tested for activity against a single high concentration of 2-KBut, 2-KHex, and 2-KOct. The spectrophotometric isopropylmalate synthase enzyme assay reported by Marcheschi et al (Marcheschi, R. J.; Li, H.; Zhang, K.; Noey, E. L.; Kim, S.; Chaubey, A.; Houk, K. N.; Liao, J. C. A synthetic recursive “+1” pathway for carbon chain elongation. ACS chemical biology 2012, 7, 689-697) was adapted into a high-throughput format in 96-well plates for the kinetic evaluation of the isopropylmalate synthase variants (shown in Table 1). […]
# [10] = substrate: CCCCCCC(=O)C(=O)O; assay: as above; format: biochemical, E. coli; conditions: other: 2-ketooctanoate 0-3.2 mM, acetyl-CoA 2 mM, pH 7.5, 30° C.
# Method: as §1, §2, §3, §4
# [11] = 2-ketooctanoate 0-3.2 mM, acetyl-CoA 2 mM
# [12] = acetyl-CoA 0-10 mM, 2-ketooctanoate 2 mM
# Chain of Citrobacter freundii MGH 56 isopropylmalate synthase (Gene Accession No. KDF09799, SEQ ID NO: 1) variant 1467, G181A/A182G/G210A/A214S/H97A/S139G/N167G/P169A/G4 (A0A0D7LMP4 entry or part of it A182G/A214S/G181A/G210A/G462D/H97A/N167G/P169A/S139G): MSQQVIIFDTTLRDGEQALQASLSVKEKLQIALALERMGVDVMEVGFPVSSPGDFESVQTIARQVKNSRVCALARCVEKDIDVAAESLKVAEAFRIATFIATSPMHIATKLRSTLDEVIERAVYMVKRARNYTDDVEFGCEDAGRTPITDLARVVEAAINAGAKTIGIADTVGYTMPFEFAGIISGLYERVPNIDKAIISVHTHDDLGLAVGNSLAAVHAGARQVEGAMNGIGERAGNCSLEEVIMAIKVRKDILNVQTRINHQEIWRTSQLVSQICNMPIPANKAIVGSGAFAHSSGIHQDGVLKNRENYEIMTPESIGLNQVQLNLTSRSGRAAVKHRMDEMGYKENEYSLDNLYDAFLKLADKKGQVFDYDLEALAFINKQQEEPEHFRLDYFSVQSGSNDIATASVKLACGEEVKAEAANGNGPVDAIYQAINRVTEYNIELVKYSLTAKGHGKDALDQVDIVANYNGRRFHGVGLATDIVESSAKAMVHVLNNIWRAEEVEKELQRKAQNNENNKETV
# Chain of Enterobacter cloacae isopropylmalate synthase (Gene Accession No. WP_014830637, SEQ ID NO: 2) variant 1457, M255L/R260A/N264Q/H97A/S139G/N167G/P169A/G462D (A0A0H3CGL5 entry or part of it G462D/H97A/M255L/N167G/N264Q/P169A/R260A/S139G): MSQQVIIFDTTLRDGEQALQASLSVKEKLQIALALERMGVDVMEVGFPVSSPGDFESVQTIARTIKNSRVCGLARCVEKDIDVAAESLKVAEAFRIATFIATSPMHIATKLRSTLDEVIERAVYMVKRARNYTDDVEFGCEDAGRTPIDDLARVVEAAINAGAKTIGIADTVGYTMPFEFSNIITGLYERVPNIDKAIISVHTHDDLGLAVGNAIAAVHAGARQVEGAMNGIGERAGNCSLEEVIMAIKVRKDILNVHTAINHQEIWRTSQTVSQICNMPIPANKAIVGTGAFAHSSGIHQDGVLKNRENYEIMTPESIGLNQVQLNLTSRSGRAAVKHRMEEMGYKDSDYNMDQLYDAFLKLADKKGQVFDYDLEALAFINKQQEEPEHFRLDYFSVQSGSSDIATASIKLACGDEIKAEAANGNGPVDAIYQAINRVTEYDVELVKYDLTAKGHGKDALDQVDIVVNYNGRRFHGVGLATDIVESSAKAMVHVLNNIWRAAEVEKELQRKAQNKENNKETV
# Chain of Enterobacter cloacae isopropylmalate synthase (Gene Accession No. WP_014830637, SEQ ID NO: 2) variant 1460, D348E/D350E/M353L/Q355N/H97A/S139G/N167G/P169A/G462D (A0A0H3CGL5 entry or part of it D348E/D350E/G462D/H97A/M353L/N167G/P169A/Q355N/S139G): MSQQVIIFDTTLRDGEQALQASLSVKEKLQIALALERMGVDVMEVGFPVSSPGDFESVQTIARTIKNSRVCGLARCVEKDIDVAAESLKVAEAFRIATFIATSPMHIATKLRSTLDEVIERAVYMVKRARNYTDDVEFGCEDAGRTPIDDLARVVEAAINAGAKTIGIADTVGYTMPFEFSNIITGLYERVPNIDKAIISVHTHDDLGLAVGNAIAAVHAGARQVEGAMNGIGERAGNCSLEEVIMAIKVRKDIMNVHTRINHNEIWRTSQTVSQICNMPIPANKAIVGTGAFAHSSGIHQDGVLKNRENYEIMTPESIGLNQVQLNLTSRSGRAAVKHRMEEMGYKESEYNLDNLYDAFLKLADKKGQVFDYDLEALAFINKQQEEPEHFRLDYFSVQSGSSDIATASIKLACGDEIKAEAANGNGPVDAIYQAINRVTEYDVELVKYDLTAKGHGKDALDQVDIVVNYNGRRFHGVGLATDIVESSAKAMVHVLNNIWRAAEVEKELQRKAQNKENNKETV
# Chain of Citrobacter freundii MGH 56 isopropylmalate synthase (Gene Accession No. KDF09799, SEQ ID NO: 1) variant 1409, H97A/S139G/N167G/P169A/G462D (A0A0D7LMP4 entry or part of it G462D/H97A/N167G/P169A/S139G): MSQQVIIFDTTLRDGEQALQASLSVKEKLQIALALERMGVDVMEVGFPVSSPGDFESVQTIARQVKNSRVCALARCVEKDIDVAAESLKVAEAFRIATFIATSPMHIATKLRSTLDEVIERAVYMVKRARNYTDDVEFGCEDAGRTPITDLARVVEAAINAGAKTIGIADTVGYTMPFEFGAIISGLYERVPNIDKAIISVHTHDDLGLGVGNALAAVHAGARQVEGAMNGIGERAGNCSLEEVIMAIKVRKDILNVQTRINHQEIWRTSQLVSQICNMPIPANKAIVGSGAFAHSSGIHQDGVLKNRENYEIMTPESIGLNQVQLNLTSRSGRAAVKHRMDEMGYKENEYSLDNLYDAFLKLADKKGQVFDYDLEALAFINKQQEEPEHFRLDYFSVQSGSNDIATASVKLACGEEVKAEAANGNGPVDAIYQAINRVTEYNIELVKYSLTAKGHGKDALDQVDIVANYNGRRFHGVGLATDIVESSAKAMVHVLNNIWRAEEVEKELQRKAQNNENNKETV
# Chain of Enterobacter cloacae isopropylmalate synthase (Gene Accession No. WP_014830637, SEQ ID NO: 2) variant 1414, H97A/S139G/N167G/P169A/G462D (A0A0H3CGL5 entry or part of it G462D/H97A/N167G/P169A/S139G): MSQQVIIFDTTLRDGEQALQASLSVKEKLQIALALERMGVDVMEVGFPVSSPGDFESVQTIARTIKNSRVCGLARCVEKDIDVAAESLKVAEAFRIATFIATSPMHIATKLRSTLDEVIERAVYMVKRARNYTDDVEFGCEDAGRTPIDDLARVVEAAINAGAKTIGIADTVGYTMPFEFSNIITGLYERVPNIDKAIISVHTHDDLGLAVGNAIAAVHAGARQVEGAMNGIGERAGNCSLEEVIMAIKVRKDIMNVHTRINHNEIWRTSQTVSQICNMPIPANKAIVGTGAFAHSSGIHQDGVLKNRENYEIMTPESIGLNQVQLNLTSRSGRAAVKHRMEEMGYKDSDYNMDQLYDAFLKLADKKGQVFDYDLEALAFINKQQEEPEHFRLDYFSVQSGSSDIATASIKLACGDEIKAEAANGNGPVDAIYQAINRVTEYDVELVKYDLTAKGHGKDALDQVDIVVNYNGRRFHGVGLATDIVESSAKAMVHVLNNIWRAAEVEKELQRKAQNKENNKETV
# Chain of Citrobacter freundii MGH 56 isopropylmalate synthase (Gene Accession No. KDF09799, SEQ ID NO: 1) variant 1466, G210A/A214S/H97A/S139G/N167G/P169A/G462D (A0A0D7LMP4 entry or part of it A214S/G210A/G462D/H97A/N167G/P169A/S139G): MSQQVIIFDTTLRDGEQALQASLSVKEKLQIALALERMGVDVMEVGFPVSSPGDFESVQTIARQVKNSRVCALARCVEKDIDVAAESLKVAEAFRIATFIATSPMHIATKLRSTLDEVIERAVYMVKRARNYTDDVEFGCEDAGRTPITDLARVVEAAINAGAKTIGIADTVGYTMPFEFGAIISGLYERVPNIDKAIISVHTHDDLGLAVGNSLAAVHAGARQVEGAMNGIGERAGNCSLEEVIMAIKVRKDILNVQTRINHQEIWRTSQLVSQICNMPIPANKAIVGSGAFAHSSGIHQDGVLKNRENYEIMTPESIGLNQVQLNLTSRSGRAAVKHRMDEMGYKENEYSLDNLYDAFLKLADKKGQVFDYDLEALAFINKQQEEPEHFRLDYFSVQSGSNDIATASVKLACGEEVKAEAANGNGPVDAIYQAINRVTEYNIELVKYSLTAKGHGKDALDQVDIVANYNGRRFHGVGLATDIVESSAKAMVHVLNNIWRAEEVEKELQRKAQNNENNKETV
molecule,measurement,setting,value
"Enterobacter cloacae isopropylmalate synthase (Gene Accession No. WP_014830637, SEQ ID NO: 2) variant 1457, M255L/R260A/N264Q/H97A/S139G/N167G/P169A/G462D (Enterobacter cloacae subsp. cloacae ATCC 13047; G462D/H97A/M255L/N167G/N264Q/P169A/R260A/S139G)",Km,CCCCCCC(=O)C(=O)O,176 ± 9 µM
"Enterobacter cloacae isopropylmalate synthase (Gene Accession No. WP_014830637, SEQ ID NO: 2) variant 1460, D348E/D350E/M353L/Q355N/H97A/S139G/N167G/P169A/G462D (Enterobacter cloacae subsp. cloacae ATCC 13047; D348E/D350E/G462D/H97A/M353L/N167G/P169A/Q355N/S139G)",Km,CCCCCCC(=O)C(=O)O,170 ± 7 µM
"Citrobacter freundii MGH 56 isopropylmalate synthase (Gene Accession No. KDF09799, SEQ ID NO: 1) variant 1409, H97A/S139G/N167G/P169A/G462D (Citrobacter freundii; G462D/H97A/N167G/P169A/S139G)",Km,CCCCCCC(=O)C(=O)O,64 ± 9 µM
same,Km,[1],450 ± 240 µM
"CCCCCCC(=O)C(=O)O [2-Ketooctanoic acid, 2-ketooctanoic acid]",kcat (2-ketooctanoic acid),[2]; [11],4.12 ± 0.09 s⁻¹
same,kcat/KM (2-ketooctanoic acid),[2]; [11],23550 ± 983 M⁻¹ s⁻¹
same,kcat (2-ketooctanoic acid),[3]; [11],2.8 ± 0.065 s⁻¹
same,kcat/KM (2-ketooctanoic acid),[3]; [11],22580 ± 983 M⁻¹ s⁻¹
same,% more efficient than construct 614 in capturing 2-ketooctanoate (kcat/KM),[4]; vs E. coli construct 614,30-40%
same,fold more efficient than parent construct 1409 in capturing 2-ketooctanoate (kcat/KM),[4]; vs parent 1409,9 fold
same,kcat (2-ketooctanoic acid),[5]; [11],2.47 ± 0.083 s⁻¹
same,kcat/KM (2-ketooctanoic acid),[5]; [11],26450 ± 1970 M⁻¹ s⁻¹
same,kcat (2-ketooctanoic acid),[6]; [11],0.205 ± 0.0083 s⁻¹
same,kcat/KM (2-ketooctanoic acid),[6]; [11],2930 ± 300 M⁻¹ s⁻¹
same,kcat (2-ketooctanoic acid),[7]; [11],3.5 ± 0.0583 s⁻¹
same,kcat/KM (2-ketooctanoic acid),[7]; [11],20620 ± 983 M⁻¹ s⁻¹
"Enterobacter cloacae isopropylmalate synthase (Gene Accession No. WP_014830637, SEQ ID NO: 2) variant 1414, H97A/S139G/N167G/P169A/G462D (Enterobacter cloacae subsp. cloacae ATCC 13047; G462D/H97A/N167G/P169A/S139G)",Km,CCCCCCC(=O)C(=O)O,124 ± 8 µM
"CC(=O)SCCNC(=O)CCNC(=O)[C@H](O)C(C)(C)COP(=O)(O)OP(=O)(O)OC[C@H]1O[C@@H](n2cnc3c(N)ncnc32)[C@H](O)[C@@H]1OP(=O)(O)O [acetyl CoA, acetyl coenzyme A]",kcat (acetyl CoA),[2]; [12],3.83 ± 0.083 s⁻¹
same,kcat (acetyl CoA),[3]; [12],2.35 ± 0.083 s⁻¹
same,kcat (acetyl CoA),[5]; [12],5.2 ± 0.25 s⁻¹
same,kcat (acetyl CoA),[6]; [12],0.118 ± 0.02 s⁻¹
same,kcat (acetyl CoA),[8],0.4 ± 0.04 s⁻¹
same,kcat (acetyl CoA),[7]; [12],3.43 ± 0.267 s⁻¹
"Citrobacter freundii MGH 56 isopropylmalate synthase (Gene Accession No. KDF09799, SEQ ID NO: 1) variant 1467, G181A/A182G/G210A/A214S/H97A/S139G/N167G/P169A/G462D (Citrobacter freundii; A182G/A214S/G181A/G210A/G462D/H97A/N167G/P169A/S139G)",Km,CCCCCCC(=O)C(=O)O,92 ± 9 µM
B1,Km,[9],830 ± 50 µM
same,kcat,[9],4.4 ± 0.133 s⁻¹
same,kcat/Km,[9],5370 ± 383 M⁻¹ s⁻¹
same,Km,[10],250 ± 35 µM
same,kcat,[10],4.53 ± 0.3 s⁻¹
same,kcat/Km,[10],18600 ± 1950 M⁻¹ s⁻¹
